Measured values as given in the NIST ThermoML archive (doi:10.1016/j.jct.2014.05.021).

Test: excess molar enthalpy (molar enthalpy of mixing); xn = mol fraction of the nth substance listed
Details: 101 kPa, Liquid, Calvet calorimetry

[Ca] [calcium] + [Ag]
Details | excess molar enthalpy [kcal/mol]
1131 K, x1 = 0.7564 | -3.38
1131 K, x1 = 0.8188 | -2.59
1131 K, x1 = 0.8703 | -1.83
1131 K, x1 = 0.8808 | -1.66
1131 K, x1 = 0.9156 | -1.19
1131 K, x1 = 0.9224 | -1.1
1131 K, x1 = 0.9626 | -0.537
1131 K, x1 = 0.9647 | -0.496
1254 K, x1 = 0.0642 | -1.32
1254 K, x1 = 0.0984 | -1.7
1254 K, x1 = 0.1103 | -1.83
1254 K, x1 = 0.1123 | -2.28
1254 K, x1 = 0.1203 | -2.04
1254 K, x1 = 0.1288 | -2.6
1254 K, x1 = 0.1327 | -2.32
1254 K, x1 = 0.1487 | -2.66
1254 K, x1 = 0.1699 | -3.08
1254 K, x1 = 0.1893 | -3.43
1254 K, x1 = 0.1897 | -3.31
1254 K, x1 = 0.2073 | -3.25
1254 K, x1 = 0.2145 | -3.87
1254 K, x1 = 0.2393 | -3.77
1254 K, x1 = 0.2405 | -4.25
1254 K, x1 = 0.249 | -4.69
1254 K, x1 = 0.2673 | -4.17
1254 K, x1 = 0.2711 | -4.66
1254 K, x1 = 0.2999 | -4.55
1254 K, x1 = 0.3115 | -5.08
1254 K, x1 = 0.3416 | -4.95
1254 K, x1 = 0.3685 | -5.53
1254 K, x1 = 0.3962 | -5.28
1254 K, x1 = 0.4438 | -5.82
1254 K, x1 = 0.4634 | -5.88
1254 K, x1 = 0.4708 | -5.44
1254 K, x1 = 0.5175 | -5.79
1254 K, x1 = 0.5477 | -5.3
1254 K, x1 = 0.5562 | -5.62
1254 K, x1 = 0.6306 | -4.79
1254 K, x1 = 0.6313 | -5
1254 K, x1 = 0.6768 | -4.7
1254 K, x1 = 0.7157 | -4.28
1254 K, x1 = 0.7353 | -3.76
1254 K, x1 = 0.8259 | -2.59
1254 K, x1 = 0.9396 | -0.962
